In paper PMC12668310, “High‐Throughput Synthesis and Screening of a Cyanimide Library Identifies Selective Inhibitors of ISG15‐Specific Protease mUSP18” (Angewandte Chemie (International Ed. in English), 2025):

Experiments:
UCHL3 = target: T1, UCHL3 (Homo sapiens, UniProt P15374); assay: IC50 determination, fluorogenic Ub-Rho-morpholine activity assay; type: biochemical; details: after 30 min incubation; purified compound
T1 construct: (1-230); made in house
T1 sequence (P15374 1-230): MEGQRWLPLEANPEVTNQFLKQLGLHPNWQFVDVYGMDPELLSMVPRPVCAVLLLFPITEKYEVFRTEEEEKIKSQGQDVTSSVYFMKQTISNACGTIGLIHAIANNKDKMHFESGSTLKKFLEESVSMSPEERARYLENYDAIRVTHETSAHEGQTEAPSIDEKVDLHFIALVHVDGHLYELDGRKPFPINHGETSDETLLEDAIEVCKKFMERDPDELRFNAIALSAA

mUSP18 [1] = target: T2, mUSP18 (Mus musculus, UniProt Q9WTV6); assay: IC50 determination, fluorogenic ISG15CT-Rho-morpholine activity assay; type: biochemical, murine; details: after 30 min incubation; purified compound; ISG15CT-Rho-morpholine substrate
T2 construct: (46-368); His-tag (N); made in house
T2 sequence (Q9WTV6 46-368): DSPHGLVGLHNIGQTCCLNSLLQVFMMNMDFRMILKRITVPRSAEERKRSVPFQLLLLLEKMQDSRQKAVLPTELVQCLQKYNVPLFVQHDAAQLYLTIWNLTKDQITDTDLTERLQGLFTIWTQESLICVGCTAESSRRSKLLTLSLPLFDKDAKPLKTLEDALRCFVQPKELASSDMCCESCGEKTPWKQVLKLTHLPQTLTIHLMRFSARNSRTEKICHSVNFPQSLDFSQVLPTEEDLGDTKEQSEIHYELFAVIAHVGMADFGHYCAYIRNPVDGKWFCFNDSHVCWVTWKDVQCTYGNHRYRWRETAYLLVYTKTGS

OTUB2 = target: T3, OTUB2 (Homo sapiens, UniProt Q96DC9); assay: biochemical
T3 sequence (Q96DC9 1-234): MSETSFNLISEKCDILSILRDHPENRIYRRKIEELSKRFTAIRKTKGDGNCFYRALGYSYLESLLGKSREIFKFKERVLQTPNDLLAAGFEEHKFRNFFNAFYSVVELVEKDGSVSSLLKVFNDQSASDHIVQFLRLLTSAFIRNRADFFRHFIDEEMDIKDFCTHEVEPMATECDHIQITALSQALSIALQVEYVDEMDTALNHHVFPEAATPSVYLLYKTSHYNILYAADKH
Procedure: (§1) This panel included five proteases from the USP family, two from the UCH family, and one OTU. The IC50 values were determined in a well‐established biochemical activity assay using the fluorogenic substrate Ub‐Rho‐morpholine.^[ [33] ^]
(§2) Enzymes were pre-incubated with a concentration series of the compounds for 30 minutes at
(§3) room temperature, before addition of the substrate and direct read-out by fluorescence
(§4) intensity. Data is presented as mean ± SD, n=3.
(§5) USP16 Full length N-terminal His-tag Q9Y5T5 In-house, [Mons, 2 nM
IC50 and kinact/KI determination
(§6) The assays were performed at room temperature in “nonbinding surface flat bottom low flange”
(§7) TrisꞏHCl, 100 mM NaCl, pH 7.6, 2.0 mM cysteine, 1 mg/mL 3-[(3-cholamidopropyl)-
(§8) dimethylammonio]propanesulfonic acid (CHAPS), and 0.5 mg/mL γ-globulins from bovine
(§9) blood (BGG). […] The compounds were dissolved in 10
(§10) mM DMSO stocks, and appropriate volumes were transferred to the empty plates using a
(§11) Labcyte Echo550 acoustic dispenser. A DMSO back-fill was performed to obtain equal volumes of DMSO (400 μL) in each well. N-ethylmaleimide (NEM, 10 mM) was used a positive
steps were performed on a Biotek MultiflowFX liquid dispenser. […]
(§12) RhoMP, 10 µM for Z-FR-AMC), and the increase in fluorescence over time was recorded using
excitation 360 nm, emission 450 nm for AMC). The initial enzyme velocities were calculated […]

USP32 = target: T4, USP32 (Homo sapiens, UniProt Q8NFA0); assay: IC50 determination, fluorogenic Ub-Rho-morpholine activity assay; type: biochemical; details: after 30 min incubation; purified compound
T4 construct: (1-1604); His-tag (N); made in house

UCHL1 = target: T5, UCHL1 (Homo sapiens, UniProt P09936); assay: as above; type: biochemical; details: after 30 min incubation; purified compound
T5 construct: (1-223); made in house
T5 sequence (P09936 1-223): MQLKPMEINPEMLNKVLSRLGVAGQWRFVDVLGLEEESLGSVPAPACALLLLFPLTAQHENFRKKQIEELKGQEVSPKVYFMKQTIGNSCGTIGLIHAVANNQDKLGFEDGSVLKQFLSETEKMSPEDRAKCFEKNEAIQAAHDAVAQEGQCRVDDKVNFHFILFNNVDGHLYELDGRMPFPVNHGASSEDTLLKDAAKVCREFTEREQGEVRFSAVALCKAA

USP30 [2] = target: T6, USP30 (Homo sapiens, UniProt Q70CQ3); assay: biochemical
T6 sequence (Q70CQ3 57-517): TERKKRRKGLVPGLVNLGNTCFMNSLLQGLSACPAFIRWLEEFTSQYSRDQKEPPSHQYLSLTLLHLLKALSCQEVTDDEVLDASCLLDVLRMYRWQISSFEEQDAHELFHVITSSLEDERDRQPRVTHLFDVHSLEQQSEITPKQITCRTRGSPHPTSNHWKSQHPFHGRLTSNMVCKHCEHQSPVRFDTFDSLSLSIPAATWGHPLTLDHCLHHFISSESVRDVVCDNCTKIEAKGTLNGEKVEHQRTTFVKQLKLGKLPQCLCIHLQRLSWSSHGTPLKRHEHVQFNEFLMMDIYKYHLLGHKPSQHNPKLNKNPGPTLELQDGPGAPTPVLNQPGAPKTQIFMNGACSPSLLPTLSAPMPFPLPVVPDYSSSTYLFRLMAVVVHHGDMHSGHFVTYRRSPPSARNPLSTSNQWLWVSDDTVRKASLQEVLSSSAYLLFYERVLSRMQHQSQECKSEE
Procedure: This panel included five proteases from the USP family, two from the UCH family, and one OTU. The IC50 values were determined in a well‐established biochemical activity assay using the fluorogenic substrate Ub‐Rho‐morpholine.^[ [33] ^] For USP18, which is unreactive to Ub but specific for ISG15, we used the ISG15CT‐Rho‐morpholine (consisting of the C‐terminal domain of ISG15) substrate to monitor its activity (see Supporting Information for preparation of this substrate).
as §2, §3, §4
room temperature, followed by the addition of substrate and direct read-out by fluorescence
IC50 and kinact/KI determination
as §6, §7, §8, §9, §10, §11
(§13) steps were performed on a Biotek MultiflowFX liquid dispenser. A 10 μL portion of buffer was added and the plate was vigorously shaken for 20s. Next, 5 μL of recombinant enzyme (4x final concentration) was added followed by incubation for 1h. A 5 μL portion of the substrate
(§14) (Ub-RhoMP[2] for all DUBs, ISG15ct-RhoMP (vide supra) for USP18 and Z-FR-AMC [Bachem,
as §12
(§15) excitation 360 nm, emission 450 nm for AMC). The initial enzyme velocities were calculated
(§16) from the slopes, normalized to the positive and negative controls, and plotted against the
(§17) inhibitor concentrations using the built-in equation “[inhibitor] vs response − variable slope
(§18) (four parameters), least-squares fit” with constraints “Bottom = 0” and “Top = 100” in GraphPad
(§19) Prism 7 software to obtain the IC50 values.
(§20) All data fitting and calculations were done using GraphPad Prism 7 software.

USP30 [3] = target: T6, USP30; assay: High-throughput screening, Ub-RhoMP, single dose 1.25 µM; type: biochemical; design: USP30 CD (57-517); purchased Ubiquigent 64-0057-050; details: crude in-plate synthesized compound, 1.25 µM assuming full conversion
Procedure: Since the in‐plate synthesis was conducted in 1536‐well Echo plates, the compounds could readily be transferred from these plates into 1536‐well assay plates using acoustic liquid dispensing (Figure 2a) and subjected to HTS. We screened the whole 7536 compound library against a panel of twelve enzymes, including three DUBs from the UCH family, two DUBs from the OTU family, five DUBs from the USP family, plus ISG15 protease USP18, and SUMO protease SENP1. Each compound was tested at a single dose of 1.25 µM, assuming full conversion (10 mM in DMSO of the formed products) during the in‐plate synthesis, using the fluorogenic assay described above. […] The compounds are sorted by the amine building blocks (BB1‐16), and within each BB, sorted by carboxylic acid (CA1‐471), thereby providing a comprehensive and systematic overview of the overall inhibition by each BB and CA combination. Some interesting patterns can be obtained from this map. […] Indeed, BB10 is the privileged scaffold for UCHL1 as it originates from UCHL1 inhibitor 5 (Figure 1). […] On the other hand, OTUD1 and USP32 show a much higher hit rate, and this is even more pronounced for USP30 and ISG15 protease mUSP18, each showing many active compounds distributed over several BB's.
Purified recombinant enzymes used in this study
High-throughput screening
The screens were performed at room temperature in “flat bottom, non-treated, black […]
µM. The compounds (10 nL each) were transferred from the 1 mM daughter plates to the […]
Four wells containing DMSO
(10 nL) and four wells containing NEM (10 mM final concentration) were used in each plate […]
solution (1.33x final concentration) was added to each well, followed by incubation for 30 min.
Next, 2 µL of a substrate solution (4x final concentration) was added to each well (Ub-RhoMP[2]
After 1h or 2h incubation the
The percentage inhibition was calculated for each well using the […]
Where FIx is the fluorescence intensity of each well, FIpos is the average fluorescence intensity of the positive (NEM) control wells, and FIneg is the average fluorescence intensity of the negative (DMSO) control wells.

mUSP18 [4] = target: T2, mUSP18; assay: High-throughput screening, ISG15ct-RhoMP, single dose 1.25 µM; type: biochemical, murine; details: crude in-plate synthesized compound, 1.25 µM assuming full conversion; read-out: %inhibition mUSP18
USP16 = USP16 (Homo sapiens, UniProt Q9Y5T5); assay: biochemical
Procedure: as §1, §2, §3, §4, §5
IC50 and kinact/KI determination
as §6, §7, §8, §9, §10, §11, §13, §14, §12, §15, §16, §17, §18, §19, §20

USP7 = target: T7, USP7 (Homo sapiens, UniProt Q93009); assay: IC50 determination, fluorogenic Ub-Rho-morpholine activity assay; type: biochemical; details: after 30 min incubation; purified compound
T7 construct: (1-1102); GST (cleaved yes); made in house
T7 sequence (Q93009 whole entry): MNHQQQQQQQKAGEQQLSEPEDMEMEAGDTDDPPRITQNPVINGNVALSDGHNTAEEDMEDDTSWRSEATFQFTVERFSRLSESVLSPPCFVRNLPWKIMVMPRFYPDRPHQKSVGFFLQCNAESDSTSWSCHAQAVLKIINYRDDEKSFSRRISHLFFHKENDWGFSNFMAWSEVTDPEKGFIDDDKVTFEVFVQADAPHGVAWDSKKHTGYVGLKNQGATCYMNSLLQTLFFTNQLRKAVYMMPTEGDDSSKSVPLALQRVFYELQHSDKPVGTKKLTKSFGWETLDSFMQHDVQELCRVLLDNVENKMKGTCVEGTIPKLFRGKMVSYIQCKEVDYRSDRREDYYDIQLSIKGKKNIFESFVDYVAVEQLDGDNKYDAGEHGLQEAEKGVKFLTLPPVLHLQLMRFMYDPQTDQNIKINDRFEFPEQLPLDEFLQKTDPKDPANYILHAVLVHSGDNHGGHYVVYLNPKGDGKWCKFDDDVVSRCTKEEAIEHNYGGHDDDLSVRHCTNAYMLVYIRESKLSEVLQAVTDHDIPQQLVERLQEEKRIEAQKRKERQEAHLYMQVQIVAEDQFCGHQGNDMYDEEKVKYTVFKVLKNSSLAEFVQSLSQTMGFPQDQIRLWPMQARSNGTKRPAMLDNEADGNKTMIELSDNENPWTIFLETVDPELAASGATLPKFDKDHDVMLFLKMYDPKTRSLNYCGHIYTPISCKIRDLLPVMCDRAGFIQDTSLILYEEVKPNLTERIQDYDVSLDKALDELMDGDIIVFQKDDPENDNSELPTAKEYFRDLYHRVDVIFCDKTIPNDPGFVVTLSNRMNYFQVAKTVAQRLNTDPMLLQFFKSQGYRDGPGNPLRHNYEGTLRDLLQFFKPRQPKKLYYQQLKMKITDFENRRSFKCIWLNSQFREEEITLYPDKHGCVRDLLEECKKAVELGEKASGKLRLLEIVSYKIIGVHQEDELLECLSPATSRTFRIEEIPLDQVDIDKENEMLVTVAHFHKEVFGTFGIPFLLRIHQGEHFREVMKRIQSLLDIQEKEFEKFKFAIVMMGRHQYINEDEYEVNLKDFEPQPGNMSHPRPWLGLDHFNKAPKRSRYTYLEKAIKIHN

Sequence of USP16 (Q9Y5T5 22-823): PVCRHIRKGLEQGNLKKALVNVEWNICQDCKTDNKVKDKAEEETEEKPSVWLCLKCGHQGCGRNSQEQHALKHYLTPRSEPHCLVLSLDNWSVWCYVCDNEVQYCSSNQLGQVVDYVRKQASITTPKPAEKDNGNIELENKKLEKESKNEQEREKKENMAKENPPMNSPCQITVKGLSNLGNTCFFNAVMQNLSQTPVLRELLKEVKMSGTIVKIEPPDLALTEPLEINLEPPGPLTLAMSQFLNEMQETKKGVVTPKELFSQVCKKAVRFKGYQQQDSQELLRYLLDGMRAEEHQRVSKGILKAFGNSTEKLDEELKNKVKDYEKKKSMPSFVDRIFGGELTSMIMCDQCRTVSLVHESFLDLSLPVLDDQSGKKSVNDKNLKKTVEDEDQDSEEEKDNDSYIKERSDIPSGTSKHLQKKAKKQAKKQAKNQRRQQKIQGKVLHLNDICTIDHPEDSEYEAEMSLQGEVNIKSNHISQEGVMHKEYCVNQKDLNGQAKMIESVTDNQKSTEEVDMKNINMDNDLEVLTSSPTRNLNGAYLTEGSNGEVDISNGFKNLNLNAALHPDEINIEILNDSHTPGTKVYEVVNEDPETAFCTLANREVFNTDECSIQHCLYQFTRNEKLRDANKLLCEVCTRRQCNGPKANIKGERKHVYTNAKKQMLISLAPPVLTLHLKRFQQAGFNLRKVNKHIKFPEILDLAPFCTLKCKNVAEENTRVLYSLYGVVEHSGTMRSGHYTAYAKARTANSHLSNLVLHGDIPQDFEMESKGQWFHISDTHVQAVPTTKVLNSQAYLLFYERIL
T4 sequence (Q8NFA0 whole entry): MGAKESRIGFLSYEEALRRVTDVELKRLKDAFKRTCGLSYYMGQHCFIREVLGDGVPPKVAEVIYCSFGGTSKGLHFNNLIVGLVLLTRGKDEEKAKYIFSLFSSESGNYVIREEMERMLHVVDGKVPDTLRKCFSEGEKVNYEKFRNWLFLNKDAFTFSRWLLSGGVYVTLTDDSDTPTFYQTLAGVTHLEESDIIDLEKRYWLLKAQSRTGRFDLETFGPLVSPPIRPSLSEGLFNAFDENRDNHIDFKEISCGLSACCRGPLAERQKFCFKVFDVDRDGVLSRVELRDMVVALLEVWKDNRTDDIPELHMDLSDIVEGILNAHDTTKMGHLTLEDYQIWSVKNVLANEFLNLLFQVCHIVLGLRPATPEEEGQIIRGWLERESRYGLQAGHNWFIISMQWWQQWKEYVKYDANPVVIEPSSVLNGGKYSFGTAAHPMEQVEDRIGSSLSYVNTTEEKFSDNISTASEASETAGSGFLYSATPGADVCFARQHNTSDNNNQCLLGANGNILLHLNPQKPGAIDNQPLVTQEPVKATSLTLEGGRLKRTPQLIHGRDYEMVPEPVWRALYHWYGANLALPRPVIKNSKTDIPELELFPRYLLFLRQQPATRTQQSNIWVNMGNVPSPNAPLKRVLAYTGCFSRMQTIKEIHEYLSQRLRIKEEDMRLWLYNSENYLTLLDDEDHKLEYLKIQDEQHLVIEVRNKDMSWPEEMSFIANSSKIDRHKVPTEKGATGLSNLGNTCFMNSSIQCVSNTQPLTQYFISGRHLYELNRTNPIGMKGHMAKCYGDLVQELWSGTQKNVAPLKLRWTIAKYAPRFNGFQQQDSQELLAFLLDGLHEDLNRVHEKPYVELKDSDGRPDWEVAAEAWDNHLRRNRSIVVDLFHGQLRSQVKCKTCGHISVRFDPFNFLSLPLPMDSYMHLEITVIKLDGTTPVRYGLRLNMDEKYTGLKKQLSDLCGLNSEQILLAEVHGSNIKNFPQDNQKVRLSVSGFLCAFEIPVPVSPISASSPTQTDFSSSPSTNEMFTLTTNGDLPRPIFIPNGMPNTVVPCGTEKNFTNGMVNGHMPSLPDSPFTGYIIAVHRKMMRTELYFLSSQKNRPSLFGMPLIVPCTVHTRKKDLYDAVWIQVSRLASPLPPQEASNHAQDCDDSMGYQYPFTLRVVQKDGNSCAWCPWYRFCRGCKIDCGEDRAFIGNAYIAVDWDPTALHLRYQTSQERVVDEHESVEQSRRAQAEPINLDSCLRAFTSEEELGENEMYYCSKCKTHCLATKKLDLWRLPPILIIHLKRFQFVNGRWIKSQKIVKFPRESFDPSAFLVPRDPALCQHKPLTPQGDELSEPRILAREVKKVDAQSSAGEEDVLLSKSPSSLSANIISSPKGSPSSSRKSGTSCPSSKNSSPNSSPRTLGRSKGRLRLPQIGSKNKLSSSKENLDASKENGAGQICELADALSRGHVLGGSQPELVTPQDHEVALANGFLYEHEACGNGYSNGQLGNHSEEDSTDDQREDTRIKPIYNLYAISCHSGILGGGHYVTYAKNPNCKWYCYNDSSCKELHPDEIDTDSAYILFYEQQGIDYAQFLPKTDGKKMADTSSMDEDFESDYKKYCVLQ

IC50 (UCHL3): 229 µM
IC50 (mUSP18 [1]): 0.079 µM
IC50 (OTUB2): > 200 µM
IC50 (USP32): 0.53 µM
IC50 (UCHL1): 54 µM
IC50 (USP30 [2]): 0.043 µM
%inhibition USP30 (USP30 [3]): ~90%
inhibition at 1.25 µM (mUSP18 [4]): ~90%
IC50 (USP16): 5.1 µM
IC50 (USP7): 42 µM
Compound: N#CN1CC[C@@H](NC(=O)c2cc(-c3cccc(Cl)c3)no2)C1 [Compound 1]
